Experimental data published in PubChem BioAssay (NCI).
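Where inhibition never reached the appropriate level, the endpoint shown equals the highest concentration tested. Otherwise, values were interpolated linearly from a five-concentration, 48-hour dose response in 96-well plates. GI50 is the concentration that inhibits growth by half. TGI: total growth inhibition.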

Assays:
Assay in all cases: NCI-60 cell line screen, 48 h
[1] = tested on: HCT-15 colon
[2] = tested on: HOP-92 NSCLC
[3] = tested on: KM12 colon
[4] = tested on: MALME-3M melanoma
[5] = tested on: NCI-H226 lung
[6] = tested on: NCI-H23 lung
[7] = tested on: NCI-H522 lung
[8] = tested on: PC-3 prostate
[9] = tested on: TK-10 renal
[10] = tested on: LOX IMVI melanoma

| SMILES | TGI [1] [µM] | TGI [2] [µM] | TGI [3] [µM] | TGI [4] [µM] | TGI [5] [µM] | TGI [6] [µM] | TGI [7] [µM] | TGI [8] [µM] | TGI [9] [µM] | TGI [10] [µM] | GI50 [5] [µM] |
| --- | --- | --- | --- | --- | --- | --- | --- | --- | --- | --- | --- |
| O=C1C(=O)N(c2cccc(C(F)(F)F)c2)C(=S)N1c1ccccc1 | 40.7 | 50.7 | > 100 | > 100 | 97.5 | 82.9 | 28 | > 100 | 8.84 |  |  |
| Cc1cc(/C=C/c2cc[n+](C)c3ccccc23)c(O)c2ncccc12 | 49.8 | 17 | 18.6 | 12.4 | 7.14 | 4.86 | 11.6 |  | 17.5 | 12.3 |  |
| O=C(Nc1ccc2[nH]c(C(=O)N3CC(CCl)c4c3cc([N+](=O)[O-])c3ccccc43)cc2c1)Nc1ccc2[nH]c(C(=O)N3CC(CCl)c4c3cc([N+](=O)[O-])c3ccccc43)cc2c1 (stereo not given) | > 100 | > 100 | > 100 | > 100 | > 100 | > 100 | > 100 | > 100 | > 100 |  |  |
| CCOc1ccc(N/C(=C(/C(Cl)=C(/Cl)N2CCCCC2)[N+](=O)[O-])n2nnc3ccccc32)cc1 | 29 | 42 | 31.6 | 39.6 | 58.7 | 29.7 | 22 | 26.1 | > 100 |  |  |
| COC1C(O)C(n2ncc3c(SC)nc(SC)nc32)OC1C(O)CO (stereo not given) | > 100 | > 100 | > 100 | > 100 | > 100 | > 100 | > 100 |  |  | > 100 |  |
| Nc1nc2ncc(CNc3ccc(C(=O)NC(CCC(=O)O)C(=O)O)cc3)nc2c(=O)[nH]1 (stereo not given) | > 100 |  | > 100 | > 100 | > 100 | > 100 | > 100 | > 100 | > 100 | > 100 |  |
| COc1ccc(C2SCC(=O)N2NC(=O)c2ccc(NC(C)=O)cc2)c(OC)c1 (stereo not given) | > 100 | > 100 | > 100 |  | > 100 | > 100 |  |  | > 100 |  |  |
| Cc1c(N2CCN(C)CC2)nc2ccc(Cl)cc2c1-c1ccccc1 | 40.7 |  | 28.5 | 35.7 |  | 55.4 | 38.6 |  | > 10 | 28.3 |  |
| CC(C)NC(=O)N(Nc1ccccc1)C(C)(C)C | > 100 | > 100 | > 100 | > 100 | > 100 | > 100 |  | > 100 | > 100 | > 100 |  |
| O=c1ccn(COC(COCc2ccccc2)COCc2ccccc2)c(=O)[nH]1 | > 100 | > 100 | > 100 | > 100 | > 100 | > 100 |  | > 100 | > 100 | > 100 |  |
| CC(C)NC(=O)OCc1c(CO)c2c(n1C)-c1ccccc1CC2 | 54.6 | 53.7 | > 86.8 | > 31.6 | > 64.5 | > 65.1 | 31.3 |  |  | 56.8 |  |
| CC(=O)OCC1OC(n2c(-c3ccccc3)c(C(C)=O)c(-c3cccc4ccccc34)c(C#N)c2=S)C(OC(C)=O)C(OC(C)=O)C1OC(C)=O (stereo not given) | > 100 |  | > 100 | > 100 | > 100 | > 100 | > 100 | > 100 | > 100 | > 100 |  |
| C/C(CC(=O)Nc1ccc(C)c(C)c1)=N\NC(N)=O |  | > 100 | > 100 | > 100 | > 100 | > 100 | > 100 |  | > 100 | > 100 |  |
| CS(=O)(=O)c1ccc(N=C/C=C/Nc2ccc(S(C)(=O)=O)cc2)cc1 | > 100 | > 100 | > 100 | > 100 | > 100 | > 100 | > 100 | > 100 | > 100 |  |  |
| CN(C)CCNC(=O)c1cccc(N(C)C(=O)c2ccccc2)c1[N+](=O)[O-] | > 100 |  | > 100 | > 100 | > 100 | > 100 | > 100 | > 100 | > 100 |  |  |
| CCCCCCCCCCCCCCCCCCNC(=S)/N=C\C1=C(O)c2ccccc2C1=O | 26.7 | 14.1 | 22.7 | 28.1 | 25.6 | 31.9 |  | 15.9 | 30.6 | 17 |  |
| COc1ccccc1-c1cc(=O)c2cc3c(cc2[nH]1)OCO3 | > 100 |  |  | > 100 | 88.8 | > 100 |  |  | > 100 | > 100 | 22.8 |
| C/C(CC(O)(/C=N/O)c1ccccc1)=N/O (stereo not given) | > 100 |  | > 100 | > 100 | > 100 | > 100 | > 100 | > 100 | > 100 | > 100 |  |
| Cn1c(=O)c2c(nc3n2CCCC(=O)N3CC(O)CCl)n(C)c1=O (stereo not given) | > 100 | > 100 | > 100 |  | > 100 | > 100 | > 100 | > 100 | > 100 | > 100 |  |
| CCOC(=O)C1=CCOc2cc(N(C)C)ccc21 | > 100 |  | > 100 | > 100 | > 100 | > 100 | > 100 | > 100 | > 100 | > 100 |  |
| O=c1c(Br)cc2nc3ccccc3sc-2c1Br | > 100 | > 100 | > 100 | > 100 | > 100 | > 100 | 36.2 |  | > 100 | > 100 |  |
| O=c1[nH]nc(-c2ccccc2)n1/N=C/c1cccs1 | > 100 |  | > 100 | > 100 | > 100 | > 100 |  | > 100 |  | > 100 |  |
| O=C(CN1CCOCC1)c1ccc2c(c1)oc(=O)n2CCN1CCOCC1 |  |  | > 100 | > 100 | > 100 |  |  | > 100 |  | > 100 |  |
| [N-]=[N+]=NC(c1cn(C2CC(O)C(CO)O2)c(=O)[nH]c1=O)C(Cl)I (stereo not given) | > 100 |  | > 100 |  | > 100 | > 100 |  |  | > 100 |  |  |
